What follows are compounds tested on NL-RLuc virus (assay: Inhibition of HIV replication (NL-RLuc virus, luciferase readout in MT-2 cells)). Conditions: Human immunodeficiency virus 1, MT2, 120 h, MT-2 cells infected with NL-RLuc virus, 5 days of incubation, 10% FBS, at least 2 experiments.
Type: cell-based
Procedure, shortened: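 MT-2 cells infected with NL4-3-derived virus carrying Renilla luciferase in place of part of nef, grown 5 days with serial compound dilutions in RPMI 1640/10% FBS. Virus growth read as luciferase expression. EC50 from median effect equation, at least 2 experiments.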
For `Cc1nc(Nc2ccnnc2)c(-c2ccc(OCCc3ccc(F)cc3)c(F)c2)c(N2CCC(C)(C)CC2)c1[C@H](OC(C)(C)C)C(=O)O` [Example 74, (S)-2-(tert-Butoxy)-2-(4-(4,4-dimethylpiperidin-1-yl)-5-(3-fluoro-4-(4-fluorophenethoxy)phenyl)-2-methyl-6-(pyridazin-4-ylamino)pyridin-3-yl)acetic acid], the EC50 was 2 nM.
`Cc1nn(-c2nc(C)c([C@H](OC(C)(C)C)C(=O)O)c(N3CCC(C)(C)CC3)c2-c2ccc(OCCc3ccc(F)cc3)cc2)c(C)c1C` [Example 75, (S)-2-(tert-Butoxy)-2-(4-(4,4-dimethylpiperidin-1-yl)-5-(4-(4-fluorophenethoxy)phenyl)-2-methyl-6-(3,4,5-trimethyl-H-pyrazol-1-yl)pyridin-3-yl)acetic acid] was tested, and the EC50 was 3 nM.
For `Cc1nc(-n2nc3c(c2N)CCC3)c(-c2ccc(OCCc3ccc(F)cc3)cc2)c(N2CCC(C)(C)CC2)c1[C@H](OC(C)(C)C)C(=O)O` [Example 76, (S)-2-(6-(3-Amino-5,6-dihydrocyclopenta[c]pyrazol-2(4H)-yl)-4-(4,4-dimethylpiperidin-1-yl)-5-(4-(4-fluorophenethoxy)phenyl)-2-methylpyridin-3-yl)-2-(tert-butoxy)acetic acid], the EC50 was 4 nM.
For `Cc1nc(Nc2ccncc2)c(-c2ccc(OCCc3ccc(F)cc3)cc2)c(N2CCC(C)(C)CC2)c1[C@H](OC(C)(C)C)C(=O)O` [Example 77, (S)-2-(tert-Butoxy)-2-(4-(4,4-dimethylpiperidin-1-yl)-5-(4-(4-fluorophenethoxy)phenyl)-2-methyl-6-(pyridin-4-ylamino)pyridin-3-yl)acetic acid], the EC50 was 0.6 nM.
Compound `Cc1ccc(Nc2nc(C)c([C@H](OC(C)(C)C)C(=O)O)c(N3CCC(C)(C)CC3)c2-c2ccc(OCCc3ccc(F)cc3)cc2)nc1` [Example 78, (S)-2-(tert-Butoxy)-2-(4-(4,4-dimethylpiperidin-1-yl)-5-(4-(4-fluorophenethoxy)phenyl)-2-methyl-6-((5-methylpyridin-2-yl)amino)pyridin-3-yl)acetic acid] has an EC50 of 6 nM.
For `Cc1ccnc(Nc2nc(C)c([C@H](OC(C)(C)C)C(=O)O)c(N3CCC(C)(C)CC3)c2-c2ccc(OCCc3ccc(F)cc3)cc2)c1` [Example 79, (S)-2-(tert-Butoxy)-2-(4-(4,4-dimethylpiperidin-1-yl)-5-(4-(4-fluorophenethoxy)phenyl)-2-methyl-6-((4-methylpyridin-2-yl)amino)pyridin-3-yl)acetic acid], the EC50 was 6 nM.
Work on `Cc1cccc(Nc2nc(C)c([C@H](OC(C)(C)C)C(=O)O)c(N3CCC(C)(C)CC3)c2-c2ccc(OCCc3ccc(F)cc3)cc2)n1` [Example 80, (S)-2-(tert-Butoxy)-2-(4-(4,4-dimethylpiperidin-1-yl)-5-(4-(4-fluorophenethoxy)phenyl)-2-methyl-6-((6-methylpyridin-2-yl)amino)pyridin-3-yl)acetic acid] yielded an EC50 of 2 nM.
Compound `Cc1nc(Nc2cc(F)ccn2)c(-c2ccc(OCCc3ccc(F)cc3)cc2)c(N2CCC(C)(C)CC2)c1[C@H](OC(C)(C)C)C(=O)O` [Example 81, (S)-2-(tert-Butoxy)-2-(4-(4,4-dimethylpiperidin-1-yl)-5-(4-(4-fluorophenethoxy)phenyl)-6-((4-fluoropyridin-2-yl)amino)-2-methylpyridin-3-yl)acetic acid] has an EC50 of 11 nM.
Compound `Cc1nc(Nc2ncccc2F)c(-c2ccc(OCCc3ccc(F)cc3)cc2)c(N2CCC(C)(C)CC2)c1[C@H](OC(C)(C)C)C(=O)O` [Example 82, (S)-2-(tert-Butoxy)-2-(4-(4,4-dimethylpiperidin-1-yl)-5-(4-(4-fluorophenethoxy)phenyl)-6-((3-fluoropyridin-2-yl)amino)-2-methylpyridin-3-yl)acetic acid] has an EC50 of 2 nM.
Work on `Cc1nc(Nc2ccc(F)cn2)c(-c2ccc(OCCc3ccc(F)cc3)cc2)c(N2CCC(C)(C)CC2)c1[C@H](OC(C)(C)C)C(=O)O` [Example 83, (S)-2-(tert-Butoxy)-2-(4-(4,4-dimethylpiperidin-1-yl)-5-(4-(4-fluorophenethoxy)phenyl)-6-((5-fluoropyridin-2-yl)amino)-2-methylpyridin-3-yl)acetic acid] yielded an EC50 of 5 nM.
`Cc1ccc(Nc2nc(C)c([C@H](OC(C)(C)C)C(=O)O)c(N3CCC(C)(C)CC3)c2-c2ccc(OCCc3ccc(F)cc3)cc2)c(C)n1` [Example 85, (S)-2-(tert-Butoxy)-2-(4-(4,4-dimethylpiperidin-1-yl)-6-((2,6-dimethylpyridin-3-yl)amino)-5-(4-(4-fluorophenethoxy)phenyl)-2-methylpyridin-3-yl)acetic acid] was tested, and the EC50 was 3 nM.
`Cc1ccncc1Nc1nc(C)c([C@H](OC(C)(C)C)C(=O)O)c(N2CCC(C)(C)CC2)c1-c1ccc(OCCc2ccc(F)cc2)cc1` [Example 86, (S)-2-(tert-Butoxy)-2-(4-(4,4-dimethylpiperidin-1-yl)-5-(4-(4-fluorophenethoxy)phenyl)-2-methyl-6-((4-methylpyridin-3-yl)amino)pyridin-3-yl)acetic acid] was tested, and the EC50 was 3 nM.
With `Cc1nc(Nc2cnn(C)c2)c(-c2ccc(OCCc3ccc(F)cc3)cc2)c(N2CCC(C)(C)CC2)c1[C@H](OC(C)(C)C)C(=O)O` [Example 87, (S)-2-(tert-Butoxy)-2-(4-(4,4-dimethylpiperidin-1-yl)-5-(4-(4-fluorophenethoxy)phenyl)-2-methyl-6-((1-methyl-H-pyrazol-4-yl)amino)pyridin-3-yl)acetic acid] the EC50 was 2 nM.
`Cc1nc(Nc2ccncn2)c(-c2ccc(OCCc3ccc(F)cc3)cc2)c(N2CCC(C)(C)CC2)c1[C@H](OC(C)(C)C)C(=O)O` [Example 88, (S)-2-(tert-Butoxy)-2-(4-(4,4-dimethylpiperidin-1-yl)-5-(4-(4-fluorophenethoxy)phenyl)-2-methyl-6-(pyrimidin-4-ylamino)pyridin-3-yl)acetic acid] showed an EC50 of 0.5 nM.
`Cc1nc(Nc2cccc(F)n2)c(-c2ccc(OCCc3ccc(F)cc3)cc2)c(N2CCC(C)(C)CC2)c1[C@H](OC(C)(C)C)C(=O)O` [Example 89, (S)-2-(tert-Butoxy)-2-(4-(4,4-dimethylpiperidin-1-yl)-5-(4-(4-fluorophenethoxy)phenyl)-6-((6-fluoropyridin-2-yl)amino)-2-methylpyridin-3-yl)acetic acid] was tested, and the EC50 was 13 nM.
`Cc1nc(Nc2cccnc2F)c(-c2ccc(OCCc3ccc(F)cc3)cc2)c(N2CCC(C)(C)CC2)c1[C@H](OC(C)(C)C)C(=O)O` [Example 90, (S)-2-(tert-Butoxy)-2-(4-(4,4-dimethylpiperidin-1-yl)-5-(4-(4-fluorophenethoxy)phenyl)-6-((2-fluoropyridin-3-yl)amino)-2-methylpyridin-3-yl)acetic acid] showed an EC50 of 5 nM.
`Cc1nc(NCCCC2CCCCC2)c(-c2ccc(OCCc3ccc(F)cc3)cc2)c(N2CCC(C)(C)CC2)c1[C@H](OC(C)(C)C)C(=O)O` [Example 91, (S)-2-(tert-Butoxy)-2-(6-((3-cyclohexylpropyl)amino)-4-(4,4-dimethylpiperidin-1-yl)-5-(4-(4-fluorophenethoxy)phenyl)-2-methylpyridin-3-yl)acetic acid] was tested, and the EC50 was 72 nM.
`Cc1nc(NCc2cccnc2)c(-c2ccc(OCCc3ccc(F)cc3)cc2)c(N2CCC(C)(C)CC2)c1[C@H](OC(C)(C)C)C(=O)O` [Example 92, (S)-2-(tert-Butoxy)-2-(4-(4,4-dimethylpiperidin-1-yl)-5-(4-(4-fluorophenethoxy)phenyl)-2-methyl-6-((pyridin-3-ylmethyl)amino)pyridin-3-yl)acetic acid] gave an EC50 of 4 nM.
`Cc1nc(Nc2ccncc2F)c(-c2ccc(OCCc3ccc(F)cc3)cc2)c(N2CCC(C)(C)CC2)c1[C@H](OC(C)(C)C)C(=O)O` [Example 93, (S)-2-(tert-Butoxy)-2-(4-(4,4-dimethylpiperidin-1-yl)-5-(4-(4-fluorophenethoxy)phenyl)-6-((3-fluoropyridin-4-yl)amino)-2-methylpyridin-3-yl)acetic acid] gave an EC50 of 12 nM.
`Cc1ncccc1Nc1nc(C)c([C@H](OC(C)(C)C)C(=O)O)c(N2CCC(C)(C)CC2)c1-c1ccc(OCCc2ccc(F)cc2)cc1` [Example 94, (S)-2-(tert-Butoxy)-2-(4-(4,4-dimethylpiperidin-1-yl)-5-(4-(4-fluorophenethoxy)phenyl)-2-methyl-6-((2-methylpyridin-3-yl)amino)pyridin-3-yl)acetic acid] showed an EC50 of 6 nM.
With `Cc1nc(NCc2ccccn2)c(-c2ccc(OCCc3ccc(F)cc3)cc2)c(N2CCC(C)(C)CC2)c1[C@H](OC(C)(C)C)C(=O)O` [Example 97, (S)-2-(tert-Butoxy)-2-(4-(4,4-dimethylpiperidin-1-yl)-5-(4-(4-fluorophenethoxy)phenyl)-2-methyl-6-((pyridin-2-ylmethyl)amino)pyridin-3-yl)acetic acid] the EC50 was 5 nM.
In the case of `Cc1nc(N(C)CCCN(C)C)c(-c2ccc(OCCc3ccc(F)cc3)cc2)c(N2CCC(C)(C)CC2)c1[C@H](OC(C)(C)C)C(=O)O` [Example 98, (S)-2-(tert-Butoxy)-2-(6-((3-(dimethylamino)propyl)(methyl)amino)-4-(4,4-dimethylpiperidin-1-yl)-5-(4-(4-fluorophenethoxy)phenyl)-2-methylpyridin-3-yl)acetic acid], the EC50 is reported as 2 nM.

Same assay, conditions: MT-2 cells infected with NL-RLuc virus, 5 days of incubation, 10% FBS, at least 2 experiments
For `Cc1nc(Nc2ccnc(F)c2)c(-c2ccc(OCCc3ccc(F)cc3)cc2)c(N2CCC(C)(C)CC2)c1[C@H](OC(C)(C)C)C(=O)O` [Example 95, (S)-2-(tert-Butoxy)-2-(4-(4,4-dimethylpiperidin-1-yl)-5-(4-(4-fluorophenethoxy)phenyl)-6-((2-fluoropyridin-4-yl)amino)-2-methylpyridin-3-yl)acetic acid], the EC50 was 8 nM.
For `Cc1nc(Nc2ccnc(F)c2)c(-c2ccc(OCCc3ccc(F)cc3)cc2)c(N2CCC(C)(C)CC2)c1[C@H](OC(C)(C)C)C(=O)O` [Example 96, (S)-2-(tert-Butoxy)-2-(4-(4,4-dimethylpiperidin-1-yl)-5-(4-(4-fluorophenethoxy)phenyl)-6-((2-fluoropyridin-4-yl)amino)-2-methylpyridin-3-yl)acetic acid], the EC50 was 21 nM.

— patent publication US20200055839A1 (priority 2017, published 2020)
